Laboratory results taken from patent US11878080B2, “Protein capsules” (Cambridge Enterprise Limited, priority 2014, dated 2024).
Blank lines part the entries; values can stand above or below the compound they belong to.

Experiments:
[1] = Release of encapsulated small molecules from capsules in fresh buffer (UV absorption of supernatant); type: physicochemical
Procedure: The release of the encapsulated species from the capsules was then studied. To this effect, the capsules were incubated in fresh buffer for an increasing period of time, removed the gels by centrifugation, and measured the concentration of released small molecules in the supernatant through their UV absorption. The results shown in FIG. 4 (d) reveal marked differences in the rate of release of the small molecules.
The loaded microgels were washed with 10 mM HCl at intervals of time from 10 min to 14 d. The solutes after each washing were analysed by UV spectroscopy.

[2] = Release kinetics of insulin, glucagon and lysozyme from protein microgel capsules (washing with DDW pH 7); type: physicochemical; details: compared to insulin and lysozyme proteins
Procedure: The efficiency of microfluidic techniques for protein capsules synthesis was studied by calculating the percentage of protein participating in capsule formation following the fluorescent signal of labelled protein in residue solutions. After the preparation of the microgel capsules was accomplished and the resulting capsules were washed, in order to remove unreacted species, and the concentration of unreacted protein was calculated following UV absorption and fluorescent signal of each protein. In order to study the release kinetics of insulin, glucagon and lysozyme protein microgel shells, the loaded samples were washed with DDW pH=7 within following intervals of time: 10 min., 30 min., 1 h., 3 h., 8 h., 12 h., 24 h., 48 h., 3 d., 7 d. Each washing solution was than analysed by UV spectroscopy and fluorimeter and exact concentration of the released species was detected.
Finally, whether the aggregation nature of the protein structures influenced the release kinetics of the encapsulated proteins was studied. […] This effect is attributed to the slow aggregation process of glucagon protein in the protein assembly. However, for the multishell structures, the proteins which localise at the core of the microgels tend to dissociate (release) only after the proteins of the outer shell are released. […]

time to maximum release rate ([1]; release from lysozyme capsules in fresh buffer): one
Compound: CC1(C)S[C@@H]2[C@H](NC(=O)COc3ccccc3)C(=O)N2[C@H]1C(=O)O [Penicillin V]

Compound: glucagon: human glucagon (Gemini Bio-Products), protein assembled into and released from microgel capsules
release rate of protein from capsules [2]: much faster

extent of release from capsules ([1]; after one week): not fully released
Compound: Cc1ccc2c(c1)sc(-c1ccc(N(C)C)cc1)[n+]2C.[Cl-] [ThT, Thioflavin T]
